Measured values from ChEMBL document CHEMBL3352063, “Transition state mimetics of the Plasmodium export element are potent inhibitors of Plasmepsin V from P. falciparum and P. vivax” (J Med Chem, 2014).
Numbered stars: 1 amine (or outer) side, 2 acyl side, 3 side chain; on linkers, the order of the positions; unused ones are H or OH. Square brackets hold non-standard residues; d marks the D form. Peptide text beside a SMILES is read from it. * marks the point of attachment. Sta = CC(C)C[C@H](N)[C@@H](O)CC(=O)O; NHPhenethyl = c1ccc(CCN*)cc1; Isobutyryl = CC(C)C(=O)*; Piperidide = C1CCN(*)CC1; Pyrrolidide = C1CCN(*)C1; Cbz = O=C(OCc1ccccc1)*; PhAc = O=C(Cc1ccccc1)*; CO = O=C([*:1])[*:2]; Alloc = C=CCOC(=O)*; NHPh = c1ccc(N*)cc1; Ms = CS(=O)(=O)*; NHiPr = CC(C)N*

Molecular target: Plasmepsin V (Plasmodium falciparum (isolate 3D7)) (UniProt Q8I6Z5)
Sequence (Q8I6Z5 whole entry, looked up): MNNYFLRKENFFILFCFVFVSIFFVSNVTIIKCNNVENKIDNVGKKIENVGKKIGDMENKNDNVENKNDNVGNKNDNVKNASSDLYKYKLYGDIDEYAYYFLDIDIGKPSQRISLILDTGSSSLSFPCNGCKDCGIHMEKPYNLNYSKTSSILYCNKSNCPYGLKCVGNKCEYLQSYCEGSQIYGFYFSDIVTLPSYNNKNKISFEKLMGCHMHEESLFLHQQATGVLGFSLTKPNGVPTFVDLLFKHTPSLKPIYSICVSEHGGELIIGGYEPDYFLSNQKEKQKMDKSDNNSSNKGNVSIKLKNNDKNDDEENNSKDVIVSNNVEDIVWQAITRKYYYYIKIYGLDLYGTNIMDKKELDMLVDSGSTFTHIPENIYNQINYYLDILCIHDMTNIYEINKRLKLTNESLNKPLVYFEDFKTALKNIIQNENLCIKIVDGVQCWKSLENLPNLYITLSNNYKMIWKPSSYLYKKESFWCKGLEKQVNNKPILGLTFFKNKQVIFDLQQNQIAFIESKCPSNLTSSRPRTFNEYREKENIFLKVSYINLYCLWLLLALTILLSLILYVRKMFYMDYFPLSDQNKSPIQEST
Assay: Inhibition of Plasmodium falciparum plasmepsin V assessed as cleavage of wtKAHRP fluorogenic substrate at 1 uM

| Structure (SMILES) | inhibition [%] |
| --- | --- |
| CC(=O)N[C@@H](CCCNC(=N)N)C(=O)N[C@@H](C)C(=O)N[C@@H](CC(C)C)[C@@H](O)CC(=O)NCCc1ccccc1 (Ac-Arg-Ala-[Sta]-NHPhenethyl) | 42 |
| CC(C)C[C@H](NC(=O)[C@H](C)NC(=O)[C@H](CCCNC(=N)N)NC(=O)C(C)C)[C@@H](O)CC(=O)NCCc1ccccc1 (Isobutyryl-Arg-Ala-[Sta]-NHPhenethyl) | 49 |
| CC(C)C[C@H](NC(=O)[C@H](C)NC(=O)[C@H](CCCNC(=N)N)NC(=O)OCc1ccccc1)[C@@H](O)CC(=O)NC1CC1 | 55 |
| CC(C)C[C@H](NC(=O)[C@H](C)NC(=O)[C@H](CCCNC(=N)N)NC(=O)OCc1ccccc1)[C@@H](O)CC(=O)NC1CCC1 | 56 |
| CC(C)C[C@H](NC(=O)[C@H](C)NC(=O)[C@H](CCCNC(=N)N)NC(=O)OCc1ccccc1)[C@@H](O)CC(=O)NCC1CCCCC1 | 63 |
| CC(C)C[C@H](NC(=O)[C@H](C)NC(=O)[C@H](CCCNC(=N)N)NC(=O)OCc1ccccc1)[C@@H](O)CC(=O)NC1CCCC1 | 52 |
| CC(C)C[C@H](NC(=O)[C@H](C)NC(=O)[C@H](CCCNC(=N)N)NC(=O)NC1CCCC1)[C@@H](O)CC(=O)NCCc1ccccc1 | 41 |
| CC(C)C[C@H](NC(=O)[C@H](C)NC(=O)[C@H](CCCNC(=N)N)NC(=O)N(C)C)[C@@H](O)CC(=O)NCCc1ccccc1 ({NMe2-CO}-Arg-Ala-[Sta]-NHPhenethyl) | 65 |
| CC(C)COC(=O)N[C@@H](CCCNC(=N)N)C(=O)N[C@@H](C)C(=O)N[C@@H](CC(C)C)[C@@H](O)CC(=O)NCCc1ccccc1 | 47 |
| CC(C)C[C@H](NC(=O)[C@H](C)NC(=O)[C@H](CCCNC(=N)N)NC(=O)OCc1ccccc1)[C@@H](O)CC(=O)NC1CCCc2ccccc21 (stereo partly specified) | 51 |
| CC(C)C[C@H](NC(=O)[C@H](C)NC(=O)[C@H](CCCNC(=N)N)NC(=O)Cc1ccccc1)[C@@H](O)CC(=O)NCCc1ccccc1 (PhAc-Arg-Ala-[Sta]-NHPhenethyl) | 59 |
| CC(C)C[C@H](NC(=O)[C@H](C)NC(=O)[C@H](CCCNC(=N)N)NC(=O)Nc1ccccc1)[C@@H](O)CC(=O)NCCc1ccccc1 ({NHPh-CO}-Arg-Ala-[Sta]-NHPhenethyl) | 53 |
| CC(C)CCNC(=O)C[C@H](O)[C@H](CC(C)C)NC(=O)[C@H](C)NC(=O)[C@H](CCCNC(=N)N)NC(=O)OCc1ccccc1 | 65 |
| CC(C)C[C@H](NC(=O)[C@H](C)NC(=O)[C@H](CCCNC(=N)N)NC(=O)OCc1ccccc1)[C@@H](O)CC(=O)N(C)C (Cbz-Arg-Ala-[Sta]-NMe2) | 32 |
| CC(C)C[C@H](NC(=O)[C@H](C)NC(=O)[C@H](CCCNC(=N)N)NS(C)(=O)=O)[C@@H](O)CC(=O)NCCc1ccccc1 (Ms-Arg-Ala-[Sta]-NHPhenethyl) | 53 |
| CC(C)C[C@H](NC(=O)[C@H](C)NC(=O)[C@H](CCCNC(=N)N)NC(=O)OCc1ccccc1)[C@@H](O)CC(=O)N1CCCCC1 (Cbz-Arg-Ala-[Sta]-Piperidide) | 27 |
| CCNC(=O)N[C@@H](CCCNC(=N)N)C(=O)N[C@@H](C)C(=O)N[C@@H](CC(C)C)[C@@H](O)CC(=O)NCCc1ccccc1 ({NHEt-CO}-Arg-Ala-[Sta]-NHPhenethyl) | 26 |
| CC(C)C[C@H](NC(=O)[C@H](C)NC(=O)[C@H](CCCNC(=N)N)NC(=O)OCc1ccccc1)[C@@H](O)CC(=O)NC(C)C (Cbz-Arg-Ala-[Sta]-NHiPr) | 42 |
| C=CCOC(=O)N[C@@H](CCCNC(=N)N)C(=O)N[C@@H](C)C(=O)N[C@@H](CC(C)C)[C@@H](O)CC(=O)NCCc1ccccc1 (Alloc-Arg-Ala-[Sta]-NHPhenethyl) | 35 |
| CC(C)C[C@H](NC(=O)[C@H](C)NC(=O)[C@H](CCCNC(=N)N)NS(=O)(=O)C1CC1)[C@@H](O)CC(=O)NCCc1ccccc1 | 80 |
| CC(C)C[C@H](NC(=O)[C@H](C)NC(=O)[C@H](CCCNC(=N)N)NC(=O)OCc1ccccc1)[C@@H](O)CC(=O)N1CCCC1 (Cbz-Arg-Ala-[Sta]-Pyrrolidide) | 13 |
